From patent US5993860A, “NSADI delivery employing a powdered hydrocolloid gum obtainable from higher plants” (Venture Lending, priority 1997, dated 1999)
Where “and” joins values, the source holds several entries; their conditions need not be identical. Equal values may be shown once.

Key:
[1] = aspirin-induced gastric ulcer model in rats (ulcer severity grade); type: in vivo, rat (Sprague-Dawley male)
Description: Tests were conducted in the aspirin-induced gastric ulcer model. Rats were dosed as indicated below. Five hours after dosing, rats were sacrificed and stomachs were examined for the presence of gastric lesions. A total of 6 treatments were tested. Each treatment was tested in 12 rats. The treatments were prepared immediately prior to use. The aspirin treatments were prepared by suspending 2.00 grams of fine mesh aspirin in 100 ml water (plus 0.1% Tween 80) and then adding the specified amount (i.e. 0, 0.10, 1.00, or 5.00 grams) of Guar gum. The Guar gum 5.0% alone treatment was prepared as above except the aspirin was omitted. All dosing preparations were warmed to about 100° C.; uniformity of suspensions was ensured by constant stirring. Sprague-Dawley male rats, 148 to 190 grams, were individually-housed under standard Vivarium conditions. After arrival, rats were allowed to acclimate in house for a minimum of 5 days before initiation of testing. Rats were fasted (water ad libitum) for 18 hours prior to testing. Treatments 1-6, assigned to rats in random fashion, were administered orally (gavage) at the rate of 10 ml/kilogram (kg). Five hours after treatment, each rat was sacrificed by carbon dioxide inhalation. The abdomen was opened. The stomach was removed, opened along the greater curvature, examined for the presence of lesions, and assigned a severity grade according to the following scale: 0 No lesions 1<5 lesions, at least 1 lesion<2 mm 2<5 lesions, at least 1 lesion>2 mm 3 5 to 10 lesions, all<2 mm 4 5 to 10 lesions, at least 1 lesion>2 mm 5 >10 lesions, all<2 mm 6 >10 lesions, at least 1 lesion>2 mm In order to eliminate bias and reduce subjective variation, all ulcer grading in the study was performed in single-blind fashion by the same well-experienced grader. For each stomach, the severity score was recorded. Data are expressed using the absolute values. […] Statistical significance of differences between means were determined by analysis of variance followed by Neumann-Kuels multiple comparisons test.

[2] = ketoprofen-induced gastric damage in rats; type: in vivo, rat (male Wistar); details: ketoprofen 100 mg/kg oral; 5 h after dosing; 15 rats
Description: In this example a dose of ketoprofen (100 mg/kg) was administered to rats to induce gastric damage and guar gum was coadministered to determine its effect. Both the ketoprofen and guar gum were administered as an aqueous mixture.
Seventy-five male Wistar rats each approximately 6 weeks of age and ranging in weight from 206 g to 233 g were housed 5 to a cage in suspended polypropylene cages with wire grid floors. The rats had access to tap water and were fed a standard certified laboratory rodent diet (RM1(E)SQC), ad libitam. Lighting in the animal room was controlled to give 12 hours light (0700-1900 hours) and 12 hours dark each day. The room temperature and relative humidity controls were set at 21° C.±3° C. and 50% ±15% respectively.
After an acclimatization period of 3 days following the day of arrival, the animals were randomized into groups according to bodyweight using random numbers tables so that the group mean bodyweights were approximately equal. Including the day of randomization, there were a further 3 days of acclimatization prior to dosing. […]
Five hours after dosing, the rats were sacrificed by carbon dioxide asphyxiation and the stomachs removed. Each stomach was opened along the greater curvature and examined macroscopically for damage in the glandular portion; any damage was subjectively scored using the following system: […]

In the case of `CC(=O)Oc1ccccc1C(=O)O` [Aspirin, acetylsalicylic acid], the “Ulcer Grade, mean” value ([1]; Table 5, severity scale 0-6, 5 h after oral gavage, 10 ml/kg, 12 rats) is reported as 5.8, the “stomachs with ulcer severity scores of 5 or greater” value ([1]; number of rats of 12) is reported as 11 of the 12 and the “mean ulcer severity (mean ± s.e.m.)” value ([1]; severity scale 0-6, 5 h after dosing) is reported as 5.8 and 5.75±0.18.
In the case of `CC(C(=O)O)c1cccc(C(=O)c2ccccc2)c1` (stereo not shown) [Ketoprofen], the “Group mean score for gastric damage” value [2] is reported as 13.1.
